Results published in patent publication US12036312B2, “Non-aqueous topical compositions comprising a halogenated salicylanilide” (priority 2016, dated 2024).
In brackets after ≈: the same amount, converted by molar mass. Like-named read-outs stand apart in the source and are kept apart here.

Experiments:
S. aureus = assay: MIC assay according to CLSI criteria, Example 2, S. aureus strains; type: cell-based, Staphylococcus aureus; conditions: for MIC: Staphylococcus aureus, read-out: MIC
Source text: Chosen for its relevance regarding bacterial skin infections, the methicillin-resistant S. aureus (MRSA) 01 strain was used as the primary test microorganism. This strain is a community-acquired MRSA clinical isolate of USA 300 type, from a skin abscess.
Two-hundred-four other MRSA and methicillin-sensitive S. aureus strains, and 4 Streptococcus pyogenes strains, were also included in the study. These covered fusidic acid- and mupirocin-resistant strains, these two types of resistance being of clinical relevance.
Strains were conserved in Luria Bertani (LB) Broth (S. aureus) or Brain Heart Infusion (BHI) (S. pyogenes) supplemented with glycerol 15% (v/v) at −80° C., and reactivated by isolation on LB (S. aureus) or BHI (S. pyogenes) agar plates. Strains were cultivated in Mueller Hinton (MH) Broth-cation adjusted (S. aureus) or BHI (S. pyogenes). All strains were cultivated aerobically (microaerobically for S. pyogenes strains) at 37° C.
Bacterial cultures were stopped in their exponential growth phase and plates were inoculated with the approximate concentration of 5×10^5 cells per well. Plates were incubated at 37° C. for 18 hours (S. aureus) or 24 hours (S. pyogenes). Optical density at a wavelength of 600 nm was measured at the end of the incubation time.

P. acnes = type: cell-based, Propionibacterium acnes; conditions: for Frequency of mutation/ml: MIC × 4

O=C(Nc1ccc([N+](=O)[O-])cc1Cl)c1cc(Cl)ccc1O [Niclosamide, niclosamide]
MIC distribution: percentage of Staphylococcus aureus strains (S. aureus; MIC 0.5 μg/ml, 205 strains): 27% (55/205)
MIC50 (S. aureus; Staphylococcus aureus strains): 0.25 µg/mL (≈ 0.764 µM)
MIC90 (S. aureus; Staphylococcus aureus strains): 0.5 µg/mL (≈ 1.53 µM)
MIC (S. aureus; MRSA, strain MRSA 01): 0.25 µg/mL (≈ 0.764 µM)
MIC (S. aureus; MRSA, strain MRSA 02): 0.25 µg/mL (≈ 0.764 µM)
MIC (S. aureus; MRSA, strain MRSA 03): 0.25 µg/mL (≈ 0.764 µM)
MIC (S. aureus; MRSA, strain MRSA 04): 0.25 µg/mL (≈ 0.764 µM)
MIC (S. aureus; MRSA, strain MRSA 05): 0.25 µg/mL (≈ 0.764 µM)
MIC (S. aureus; MRSA, strain MRSA 06): 0.25 µg/mL (≈ 0.764 µM)
MIC (S. aureus; MRSA, strain MRSA 08): 0.25 µg/mL (≈ 0.764 µM)
MIC (S. aureus; MRSA, strain MRSA 10): 0.25 µg/mL (≈ 0.764 µM)
MIC (S. aureus; MRSA, strain MRSA 11): 0.25 µg/mL (≈ 0.764 µM)
MIC (S. aureus; MRSA, strain MRSA 12): 0.5 µg/mL (≈ 1.53 µM)
MIC (S. aureus; MRSA, strain MRSA 13): 0.25 µg/mL (≈ 0.764 µM)
MIC (S. aureus; MRSA, strain MRSA 14): 0.25 µg/mL (≈ 0.764 µM)
MIC (S. aureus; MRSA, strain MRSA 15): 0.25 µg/mL (≈ 0.764 µM)
MIC (S. aureus; MRSA, strain MRSA 16): 0.25 µg/mL (≈ 0.764 µM)
MIC (S. aureus; MRSA, strain MRSA 17): 0.25 µg/mL (≈ 0.764 µM)
MIC (S. aureus; MRSA, strain MRSA 18): 0.25 µg/mL (≈ 0.764 µM)
MIC (S. aureus; MRSA, strain MRSA 19): 0.25 µg/mL (≈ 0.764 µM)
MIC (S. aureus; MRSA, strain MRSA 20): 0.25 µg/mL (≈ 0.764 µM)
MIC (S. aureus; MRSA, strain MRSA 21): 0.25 µg/mL (≈ 0.764 µM)
MIC (S. aureus; MRSA, strain MRSA 22): 0.25 µg/mL (≈ 0.764 µM)
MIC (S. aureus; MRSA, strain MRSA 23): 0.25 µg/mL (≈ 0.764 µM)
MIC (S. aureus; MRSA, strain MRSA 24): 0.25 µg/mL (≈ 0.764 µM)
MIC (S. aureus; MRSA, strain MRSA 25): 0.25 µg/mL (≈ 0.764 µM)
MIC (S. aureus; MRSA, strain MRSA 26): 0.5 µg/mL (≈ 1.53 µM)
MIC (S. aureus; MRSA, strain MRSA 27): 0.5 µg/mL (≈ 1.53 µM)
MIC (S. aureus; MRSA, strain MRSA 28): 0.25 µg/mL (≈ 0.764 µM)
MIC (S. aureus; MRSA, strain MRSA 29): 0.5 µg/mL (≈ 1.53 µM)
MIC (S. aureus; MRSA, strain MRSA 30): 0.25 µg/mL (≈ 0.764 µM)
MIC (S. aureus; MRSA, strain MRSA 31): 0.25 µg/mL (≈ 0.764 µM)
MIC (S. aureus; MRSA, strain MRSA 32): 0.25 µg/mL (≈ 0.764 µM)
MIC (S. aureus; MRSA, strain MRSA 33): 0.25 µg/mL (≈ 0.764 µM)
MIC (S. aureus; MRSA, strain MRSA 34): 0.25 µg/mL (≈ 0.764 µM)
MIC (S. aureus; MRSA, strain MRSA 35): 0.25 µg/mL (≈ 0.764 µM)
MIC (S. aureus; MRSA, strain MRSA 70): 0.125 µg/mL (≈ 0.382 µM)
MIC (S. aureus; MRSA, strain MRSA 73): 0.5 µg/mL (≈ 1.53 µM)
MIC (S. aureus; MRSA, strain MRSA 75): 0.5 µg/mL (≈ 1.53 µM)
MIC (S. aureus; MRSA, strain MRSA 78): 0.5 µg/mL (≈ 1.53 µM)
MIC (S. aureus; MRSA, strain MRSA 80): 0.5 µg/mL (≈ 1.53 µM)
MIC (S. aureus; MRSA, strain MRSA 81): 0.5 µg/mL (≈ 1.53 µM)
MIC (S. aureus; MRSA, strain MRSA 83): 0.5 µg/mL (≈ 1.53 µM)
MIC (S. aureus; MRSA, strain MRSA 88): 0.25 µg/mL (≈ 0.764 µM)
MIC (S. aureus; MRSA, strain MRSA 90): 0.5 µg/mL (≈ 1.53 µM)
MIC (S. aureus; MRSA, strain MRSA 91): 0.25 µg/mL (≈ 0.764 µM)
MIC (S. aureus; MRSA, strain MRSA 92): 0.25 µg/mL (≈ 0.764 µM)
MIC (S. aureus; MRSA, strain MRSA 93): 0.25 µg/mL (≈ 0.764 µM)
MIC (S. aureus; MRSA, strain MRSA 94): 0.25 µg/mL (≈ 0.764 µM)
MIC (S. aureus; MRSA, strain MRSA 95): 0.25 µg/mL (≈ 0.764 µM)
MIC (S. aureus; MRSA, strain MRSA 96): 0.25 µg/mL (≈ 0.764 µM)
MIC (S. aureus; MRSA, strain MRSA 97): 0.25 µg/mL (≈ 0.764 µM)
MIC (S. aureus; MRSA, strain MRSA 98): 0.5 µg/mL (≈ 1.53 µM)
MIC (S. aureus; MRSA, strain MRSA 99): 0.25 µg/mL (≈ 0.764 µM)
MIC (S. aureus; MRSA, strain MRSA 100): 0.25 µg/mL (≈ 0.764 µM)
MIC (S. aureus; MRSA, strain MRSA 101): 0.5 µg/mL (≈ 1.53 µM)
MIC (S. aureus; MRSA, strain MRSA 102): 0.25 µg/mL (≈ 0.764 µM)
MIC (S. aureus; MRSA, strain MRSA 103): 0.25 µg/mL (≈ 0.764 µM)
MIC (S. aureus; MRSA, strain MRSA 104): 0.5 µg/mL (≈ 1.53 µM)
MIC (S. aureus; MRSA, strain MRSA 105): 0.25 µg/mL (≈ 0.764 µM)
MIC (S. aureus; MRSA, strain MRSA 106): 0.25 µg/mL (≈ 0.764 µM)
MIC (S. aureus; MRSA, strain MRSA 107): 0.25 µg/mL (≈ 0.764 µM)
MIC (S. aureus; MRSA, strain MRSA 108): 0.25 µg/mL (≈ 0.764 µM)
MIC (S. aureus; MRSA, strain MRSA 109): 0.25 µg/mL (≈ 0.764 µM)
MIC (S. aureus; MRSA, strain MRSA 110): 0.25 µg/mL (≈ 0.764 µM)
MIC (S. aureus; MRSA, strain MRSA 111): 0.5 µg/mL (≈ 1.53 µM)
MIC (S. aureus; MRSA, strain MRSA 112): 0.25 µg/mL (≈ 0.764 µM)
MIC (S. aureus; MRSA, strain MRSA 113): 0.25 µg/mL (≈ 0.764 µM)
MIC (S. aureus; MSSA, strain MSSA 01): 0.5 µg/mL (≈ 1.53 µM)
MIC (S. aureus; MSSA, strain MSSA 02): 0.25 µg/mL (≈ 0.764 µM)
MIC (S. aureus; NEWMAN, strain Newman): 0.25 µg/mL (≈ 0.764 µM)
frequency of mutation of resistance (P. acnes; P. acnes): less than 1×10^−9
frequency of mutation, times lower than the two comparator compounds fusidic acid and retapamulin (P. acnes; P. acnes): at least 10 times
Frequency of mutation/ml (P. acnes; P. acnes strain 998): <2.5e-09 mL⁻¹
Frequency of mutation/ml (P. acnes; P. acnes strain 1044): <1.92e-08 mL⁻¹
Frequency of mutation/ml (P. acnes; P. acnes strain CSS3023): <4.55e-09 mL⁻¹
Frequency of mutation/ml (P. acnes; P. acnes strain CSS3288): <2.7e-09 mL⁻¹
